Measurements as given in ChEMBL document CHEMBL1126407, “-Lactam peptides as potential inhibitors of the HIV gp120-CD4 interaction” (Bioorg Med Chem Lett, 1992).
Calls of active or inactive are those of the source. No cut-off for these calls is given here.

Key:
[1] = molecular target: Envelope glycoprotein gp160 (Human immunodeficiency virus type 1 group M subtype B (isolate HXB2)(HIV-1), UniProt P04578); test: Tested for inhibition of HIV gp120-CD4 interaction in an ELISA based binding assay using recombinant CD4-gp120
[2] = molecular target: Envelope glycoprotein gp160 (Human immunodeficiency virus type 1 group M subtype B (isolate HXB2)(HIV-1)) (UniProt P04578); test: Tested for inhibition of HIV CD4-gp120 interaction in an ELISA based binding assay using recombinant gp120 and soluble CD4 up to a concentration of 350 uM; No inhibition
[3] = molecular target: Envelope glycoprotein gp160 (Human immunodeficiency virus type 1 group M subtype B (isolate HXB2)(HIV-1)) (UniProt P04578); test: Tested for inhibition of HIV CD4-gp120 interaction in an ELISA based binding assay using recombinant gp120 and soluble CD4 up to a concentration of 550 uM; No inhibition

Compound `COC(=O)C(=O)N1CCC[C@@H]1C(=O)N[C@H](Cc1ccccc1)C(=O)OCc1ccccc1` has an IC50 [1] of 250 µM.
In the case of `COC(=O)[C@H](Cc1ccccc1)NC(=O)[C@@H]1N2C(=O)[C@@H](N)[C@H]2SC1(C)C`, the inhibition [2] is reported as “inactive”.
`COC(=O)[C@H](Cc1ccccc1)NC(=O)[C@H]1/C(=C/CO)O[C@@H]2CC(=O)N21` was tested, and the inhibition [3] was “inactive”.
In the case of `CC(C)C[C@H](NC(=O)[C@H](Cc1ccccc1)NC(=O)[C@H]1/C(=C/CO)O[C@@H]2CC(=O)N21)C(=O)OCc1ccccc1`, the inhibition [2] is reported as “inactive”.
